Data taken from ChEMBL document CHEMBL5215010, “Dothideomins A-D, Antibacterial Polycyclic Bisanthraquinones from the Endophytic Fungus Dothideomycetes sp. BMC-101” (2022).
Converted amounts (≈) assume the structure as drawn.

Assays:
Assay type in all cases: functional
Bacillus subtilis = assay: Antibacterial activity against Bacillus subtilis assessed as bacterial growth inhibition by CLSI protocol based broth microdilution assay
Staphylococcus aureus = assay: Antibacterial activity against Staphylococcus aureus assessed as bacterial growth inhibition by CLSI protocol based broth microdilution assay
[1] = test system: Staphylococcus epidermidis; assay: Antibacterial activity against Staphylococcus epidermidis assessed as bacterial growth inhibition by CLSI protocol based broth microdilution assay
Mycolicibacterium phlei = assay: Antibacterial activity against Mycobacterium phlei assessed as bacterial growth inhibition by CLSI protocol based broth microdilution assay

O=C(N[C@H](CO)[C@H](O)c1ccc([N+](=O)[O-])cc1)C(Cl)Cl [CHLORAMPHENICOL]
MIC (Bacillus subtilis): 0.8 mg/L (≈ 2.48 µM)
MIC (Staphylococcus aureus): 0.3 mg/L (≈ 0.928 µM)
MIC [1]: 1.5 mg/L (≈ 4.64 µM)
MIC (Mycolicibacterium phlei): 1.3 mg/L (≈ 4.02 µM)

Cc1cc(O)c2c(c1)C(=O)C1=C(C2=O)[C@H]2C(O)=C3C(=O)c4c(O)cc(C)cc4C(=O)[C@@]34C[C@H](O)C1C4[C@H]2O (stereo not given in full)
MIC (Bacillus subtilis): 1.6 mg/L (≈ 3.11 µM)
MIC (Staphylococcus aureus): 1.6 mg/L (≈ 3.11 µM)
MIC [1]: 1.6 mg/L (≈ 3.11 µM)
MIC (Mycolicibacterium phlei): 1.6 mg/L (≈ 3.11 µM)

Cc1cc(O)c2c(c1)C(=O)C1=C(C2=O)[C@H]2C(O)=C3C(=O)c4c(O)cc(C)cc4C(=O)[C@@]34CC(=O)C1C4[C@H]2O (stereo not given in full)
MIC (Bacillus subtilis): 0.4 mg/L (≈ 0.781 µM)
MIC (Staphylococcus aureus): 0.4 mg/L (≈ 0.781 µM)
MIC [1]: 0.4 mg/L (≈ 0.781 µM)
MIC (Mycolicibacterium phlei): 0.4 mg/L (≈ 0.781 µM)

Cc1cc(O)c2c(c1)C(=O)[C@]13C[C@H](O)C4C1[C@@H](O)[C@H](C(O)=C3C2=O)[C@@]12O[C@@]41C(=O)c1cc(C)cc(O)c1C2=O (stereo not given in full)
MIC (Bacillus subtilis): 0.4 mg/L (≈ 0.754 µM)
MIC (Staphylococcus aureus): 0.4 mg/L (≈ 0.754 µM)
MIC [1]: 0.4 mg/L (≈ 0.754 µM)
MIC (Mycolicibacterium phlei): 0.8 mg/L (≈ 1.51 µM)

Cc1cc(O)c2c(c1)C(=O)[C@]13C[C@H](O)C4C1[C@@H](O)[C@H](C(O)=C3C2=O)[C@@]12O[C@@]41C(=O)c1cc(C)cc(O)c1[C@H]2O (stereo not given in full)
MIC (Bacillus subtilis): 6.5 mg/L (≈ 12.2 µM)
MIC (Staphylococcus aureus): 6.5 mg/L (≈ 12.2 µM)
MIC [1]: 3.3 mg/L (≈ 6.2 µM)
MIC (Mycolicibacterium phlei): 6.5 mg/L (≈ 12.2 µM)
